≈ marks a conversion by molar mass, not a printed value.
Columns and labels:
[1] = tested on: S. aureus (ATCC n° 29213), MSSA; assay: Broth microdilution (CLSI): screening at 100 μM and MIC, MSSA; assay type: cell-based, Staphylococcus aureus; settings: for MIC: broth microdilution, 24 h, 37 °C; for % of growth inhibition, MSSA (ATCC 29123): at the concentration (MIC)
Protocol: (§1) E. coli (ATCC n° […]) – a TEM-1 β-lactamase producing strain, S. aureus (ATCC n° 29213) – herein referred to as MSSA, MRSA (ATCC n° 43300), and two clinical strains of MRSA (n° 5749 and 6154) were used in the biological assays. The antibacterial activity and minimal inhibitory concentration (MIC) of the screened compounds were evaluated with the broth microdilution method in 96-well microplates, according to the Clinical and Laboratory Standards Institute (CLSI) protocol. Initially, compounds were evaluated in a screening assay to identify promising hits. The compounds were dissolved in dimethyl sulfoxide (DMSO) and then diluted in Mueller Hinton broth (MHB; Oxoid, Thermo Scientific, U.K.) to a concentration of 200 μM. After the addition of 100 μL to each well, the same volume of bacterial suspension containing 10^5 CFU/mL was added to each of the previous solutions, resulting in a final compound concentration of 100 μM. A viability control (bacterial suspension only), inhibition controls (MHB containing five times the MIC of penicillin G for MSSA, vancomycin for MRSA strains, and streptomycin for E. coli), a sterility control (medium only), and a vehicle control (DMSO 2% v/v) were included in each assay microplate. After 24 h of incubation at 37 °C, the microplates were visually inspected for inhibition of bacterial growth, and the absorbance at 600 nm of each well was read using a microplate reader spectrophotometer (VersaMax, Molecular Devices, CA). The percentage of growth inhibition was calculated as the percentage of growth reduction compared with the vehicle control. Wells showing no visual bacterial growth (no turbidity) were considered hits. The MIC of the promising compounds in the initial screening were tested as previously described, with a serial dilution of each compound (100–1.56 μM). All conditions were tested in triplicate from at least three independent assays.

[2] = tested on: MRSA (ATCC n° 43300); assay: Broth microdilution (CLSI): screening at 100 μM and MIC, MRSA reference strain; assay type: cell-based, Staphylococcus aureus; settings: for MIC: broth microdilution, 24 h, 37 °C; for % of growth inhibition, MRSA (ATCC 43300): at the concentration given (MIC or 100 μM where MIC >100)
Protocol: as §1

[3] = tested on: clinical strain of MRSA n° 5749; assay: Broth microdilution (CLSI): screening at 100 μM and MIC, MRSA clinical strain 5749; assay type: cell-based, Staphylococcus aureus; settings: for % of growth inhibition, MRSA (5749): at the concentration given (MIC or 100 μM where MIC >100)
Protocol: as §1

[4] = tested on: clinical strain of MRSA n° 6154; assay: Broth microdilution (CLSI): screening at 100 μM and MIC, MRSA clinical strain 6154; assay type: cell-based, Staphylococcus aureus; settings: for MIC: broth microdilution, 24 h, 37 °C; for % of growth inhibition, MRSA (6154): at the concentration given (MIC or 100 μM where MIC >100)
Protocol: as §1

[5] = tested on: E. coli (ATCC 35218), TEM-1 β-lactamase producing strain; assay: Broth microdilution (CLSI): screening at 100 μM and MIC, E. coli; assay type: cell-based; settings: broth microdilution, 24 h, 37 °C
Protocol: as §1

[6] = Cytotoxicity, colorimetric MTT assay; assay type: cell-based; settings: African green monkey, Vero (ATCC CCL-81) cells, 72 h incubation
Protocol: As for the cytotoxic concentration of 50% (CC50) determination, the Vero (ATCC CCL-81) cell line was cultured in Eagle’s Minimum Essential Medium (MEM) (Cultilab, Brazil). The medium was supplemented with 5% fetal bovine serum (FBS) (Cultilab, Brazil), in addition to 100 IU/mL penicillin (Cellofarm, Brazil), 100 μg/mL streptomycin (Merck, Germany), and 0.25 μg/mL amphotericin B (Cultilab, Brazil). Cells were seeded in 96-well microplates (4.0 × 10^4 cells per well) and incubated at 37 °C and 5% CO2 atmosphere. After 24 h of incubation, 200 μL of fresh medium containing a serial dilution of the compounds (100–1.56 μM) was added to the plates. Serial dilutions of DMSO were used as vehicle controls. After 72 h of incubation under the same conditions, 100 μL of 3-(4,5-dimethylthiazol-2-yl)–2,5-diphenyltetrazolium bromide (MTT) in MEM (0.5 mg/mL) was added to each well. After 3 h of incubation with MTT (ThermoFischer Scientific), the medium was removed, and 100 μL of DMSO was added to each well to solubilize the formazan crystals. After a brief incubation under shaking for 20 min, the absorbance at 570 nm of each well was read using a spectrophotometer (VersaMax, Molecular Devices). The percentages of inhibition of cell viability were calculated by using the vehicle control. The cytotoxic concentration of 50% (CC50) is defined as the lowest concentration of a given compound that can reduce the viability of cultured cells by 50%. Posteriorly, the selectivity index (SI), that is, the ratio between the CC50 and MIC values of each active compound, was calculated. All conditions were tested in triplicate and at least two independent assays. The overall procedures applied in this work are illustrated in Figure .

[7] = tested on: MSSA and MRSA strains; assay: Broth microdilution, results summed up over MSSA and MRSA strains; assay type: cell-based, Staphylococcus aureus; settings: Staphylococcus aureus; span over the strains evaluated; read-out: MIC values against MSSA and all MRSA strains
Protocol: as §1

[8] = pharmacokinetic properties already determined; cited from earlier work
[9] = Staphylococcus aureus, ATCC 29123 / MSSA
[10] = Staphylococcus aureus, ATCC 43300 / MRSA
[11] = Staphylococcus aureus, MRSA, broth microdilution, 24 h, 37 °C

MIC [1, 9]	MIC [2, 10]	MIC [3, 11]	MIC ([4]; Staphylococcus aureus, MRSA)	MIC, E. coli (ATCC 35218) [5]	MIC [7]	SMILES	% of growth inhibition, MSSA (ATCC 29123) [1]	% of growth inhibition, MRSA (ATCC 43300) [2]	% of growth inhibition, MRSA (5749) [3]	% of growth inhibition, MRSA (6154) [4]	CC50 at 72 h [6]	inhibition at 100 µM ([1]; Staphylococcus aureus, ATCC 29123 / MSSA, at 100 μM, below the MIC, read-out: % of growth inhibition, MSSA (ATCC 29123), second line)	MIC, MRSA (5749) ([3]; broth microdilution, 24 h, 37 °C)	cell permeability [8]	stability in the gastrointestinal tract [8]	inhibition at 50 µM ([2]; Staphylococcus aureus, ATCC 43300 / MRSA, at 50 μM, below the MIC, read-out: % of growth inhibition, MRSA (ATCC 43300), second line)	inhibition at 50 µM ([3]; Staphylococcus aureus, MRSA, at 50 μM, below the MIC, read-out: % of growth inhibition, MRSA (5749), second line)	inhibition at 50 µM ([4]; Staphylococcus aureus, MRSA, at 50 μM, below the MIC, read-out: % of growth inhibition, MRSA (6154), second line)
100 µM (≈ 52.7 µg/mL)	> 100 µM	> 100 µM	> 100 µM	−	≥ 100 µM	CC(=O)O[C@@H]1[C@H](OC(C)=O)[C@H](C)O[C@H](n2cc(COC3=CC(=O)c4ccccc4C3=O)nn2)[C@H]1OC(C)=O [Compound 1, 2-[1-(2,3,4-tri-O-acetyl-6-deoxy-β-L-galactopyranosyl)-1,2,3-triazol-4-(methyl)oxy]-1,4-naphtoquinone]	99.60%	70.02%	41.76%	50.60%	33.8 ± 3.44 µM							
50 µM (≈ 10.6 µg/mL)	50 µM (≈ 10.6 µg/mL)	50 µM (≈ 10.6 µg/mL)	50 µM (≈ 10.6 µg/mL)	−	50 µM (≈ 10.6 µg/mL)	C#CCOC1=CC(=O)c2ccccc2C1=O [Compound 3, 2-[(prop-2-yn-1-yl)oxy]-1,4-naphtoquinone]	96.52%	> 99.9%	> 99.9%	> 99.9%	21.2 ± 8.89 µM							
50 µM (≈ 31.5 µg/mL)	100 µM (≈ 63 µg/mL)	100 µM (≈ 63 µg/mL)	100 µM (≈ 63 µg/mL)	−	50 to 100 µM (≈ 31.5 to 63 µg/mL)	O=C(NCCCOCCCNC(=O)c1ccc(-c2ccc(Br)cc2)o1)c1ccc(-c2ccc(Br)cc2)o1 [Compound 6, N,N′-(oxybis(propane-3,1-diyl))-bis(5-(4-bromophenyl)furan-2-carboxamide)]	> 99.9%	> 99.9%	> 99.9%	> 99.9%	43.4 ± 4.66 µM					85.3%	73.5%	78.4%

SMILES	MIC [1, 9]	MIC [2, 10]	MIC [3, 11]	MIC ([4]; Staphylococcus aureus, MRSA)	MIC, E. coli (ATCC 35218) [5]	MIC [7]	% of growth inhibition, MSSA (ATCC 29123) [1]	% of growth inhibition, MRSA (ATCC 43300) [2]	% of growth inhibition, MRSA (5749) [3]	% of growth inhibition, MRSA (6154) [4]	CC50 at 72 h [6]	inhibition at 100 µM ([1]; Staphylococcus aureus, ATCC 29123 / MSSA, at 100 μM, below the MIC, read-out: % of growth inhibition, MSSA (ATCC 29123), second line)	MIC, MRSA (5749) ([3]; broth microdilution, 24 h, 37 °C)	cell permeability [8]	stability in the gastrointestinal tract [8]	inhibition at 50 µM ([2]; Staphylococcus aureus, ATCC 43300 / MRSA, at 50 μM, below the MIC, read-out: % of growth inhibition, MRSA (ATCC 43300), second line)	inhibition at 50 µM ([3]; Staphylococcus aureus, MRSA, at 50 μM, below the MIC, read-out: % of growth inhibition, MRSA (5749), second line)	inhibition at 50 µM ([4]; Staphylococcus aureus, MRSA, at 50 μM, below the MIC, read-out: % of growth inhibition, MRSA (6154), second line)
C=C/C(C)=C\C[C@]1(C)[C@H](C)C[C@H](O)[C@@]23C(=C[C@H](OC(=O)CCC)C[C@@H]12)[C@@H](OC(C)=O)O[C@H]3OC(C)=O [Compound 5, [(1S,3R,5R,6aS,7R,8R,10S,10aS)-1,3-diacetyloxy-10-hydroxy-7,8-dimethyl-7-[(2Z)-3-methylpenta-2,4-dienyl]-1,3,5,6,6a,8,9,10-octahydrobenzo[d][2]benzofuran-5-yl] butanoate]	200 µM (≈ 101 µg/mL)	100 µM (≈ 50.5 µg/mL)		100 µM (≈ 50.5 µg/mL)	−		96.43%	> 99.9%		> 99.9%		27.4%	−	high	degradation in the gastrointestinal tract			
